Measurements: patent US4954156A, “N,N-dihalo-2-imidazolidinones and N-halo-2-oxazolidinones as urease and nitrification inhibitors” (Tennessee Valley Authority, priority 1989, dated 1990)
“And” between values parts separate entries of the source, which are not always exact repeats. Equal entries are not always repeated.

Assays:
[1] = molecular target: purified Jack Bean urease (Canavalia ensiformis, UniProt P07374); test: Aqueous system (pH stat) urease inhibition test; assay type: biochemical; conditions: 25° C
Description: (§1) Embodiment 1: Urease activity of inhibitor test compounds may be evaluated either in aqueous or in soil systems. When aqueous systems are used, urea plus a test compound with possible urease inhibition activity and relatively pure urease enzyme are incubated together to determine the effects of the test compound on urease-catalyzed hydrolysis of urea. When soil systems are used, urea and the test compound are added to moist soil, and the urease enzyme is supplied from the soil. The main disadvantage of using soil systems is that the true activity of test compounds may be masked because of reactions between the test compound and soil. Thus, basic studies for understanding chemical structure-activity relationships are usually done in aqueous systems.
Aqueous System (pH Stat) Test Procedure: The aqueous system urease inhibition tests were conducted at 25° C using purified Jack Bean urease enzyme, 50,000-80,000 units per gram, a unit of urease will liberate 1 umole of NH3 from urea per minute at pH 7.0 at 25° C.
An appropriate amount of inhibitor [such as 37.0 uL (microliters) of a 1.169×10^(-3) M (moles/liter) inhibitor solution] and 100 uL of a solution of 13.9130 mg Jack Bean urease enzyme in 10.00 mL of water were diluted to 25.00 mL. This combined solution was allowed to sit undisturbed at 23° C. for twenty (20) minutes. Then 20.0 uL of a preservative solution was added to prevent degradation of the urease enzyme during the course of the experiment. The preservative solution contained 5.655×10^-4 moles/liter ethylenediaminetetraacetic acid (disodium salt) and 1.166×10^-3) moles/liter dithiothreitol.
Immediately after the addition of the preservative solution to the inhibitor/urease solution, 800 uL of a 0.1246 M urea solution was added and a computer assisted titrimeter was started. This titrimeter maintained a constant pH of 6.97 during the course of the experiment by neutralizing the ammonia (resulting from urease hydrolysis of urea) with 0.01142 M hydrochloric acid (HCl). The volume (measured to 0.001 mL) of HCl added was automatically recorded every 15 seconds for up to 20.0 minutes or until a total volume of 2.500 mL of HCl was added.
Experiments also were conducted without inhibitor (blank) and with the inhibitor PPDA for comparison. The experiments were replicated, and the percent inhibition for each of the inhibitors at the various concentrations was calculated as follows:
% inhibition=(kinhibitor /kblank)×100 (4)
where kinhibitor and kblank are the average rates of HCl addition for the inhibitor and blank experiments, respectively. The rates of HCl addition were calculated by linear regression of the titration curves.

[2] = test system: nitrification of ammonium nitrogen in soil; test: Soil nitrification inhibition test (Mountainview silt loam, banded); conditions: for percent nitrification inhibition: separate experiment (Examples VII, IX): sampled only at end of 5-week incubation, no dicyandiamide comparison; for % inhibition (nitrification) / Net mg NO2N / Net mg NO3N: 25° C, 410 mg urea + 41 mg inhibitor
Description: Embodiment 2: The N-Halamine compounds were tested for nitrification inhibition using the soil testing procedure described below.
Mountainview silt loam soil was screened through a 2 mm sieve. Plexiglas containers (8×8×6 cm) were packed half full with the soil and packed to a bulk density of 1.0 g/cm^3 and wetted to field capacity (approximately 20 weight percent moisture). The urea 410 mg per container) and inhibitor (41 mg per container) were added in a narrow band (0.5 cm wide X 6 cm long), and additional soil was added to fill the containers. The total amount of dry soil added was 384 g. The containers were incubated at 25° C. During incubation the containers were checked periodically for moisture loss and additional water added as needed to maintain moisture levels.
The individual containers were removed from the incubator at 1, 2, 3, 4, and 5 week intervals. After removal from the incubator the contents of the container were transferred to a plastic bag and thoroughly mixed. A 10-g sample of soil (dry basis) was taken from the bag and extracted with 100 ml of 2 N KCL. The extract was filtered through Whatman #41 filter paper and refrigerated until analyzed. Samples were analyzed for NO3-N- NO2-N- and urea-N using a colorimetric procedure. Some samples also were analyzed for NH4-N.
The percent nitrification inhibition was calculated according to the method of Bundy and Bremner [G. L. Bundy and J. M. Bremner, Soil Sci. Soc. Am. Proc. 37, 396-398 (1973)]
% nitrification inhibition=[(C-S)/C]×100
where C=net amount of NO3-N produced in the control (no inhibitor added), and S=net amount of NO3-N produced in the inhibitor treated sample.
^a Concentrations are in net mg/container. All containers had 384 g
soil (dry), 410 mg urea (188.6 mg N) and 41 mg inhibitor. Samples were
extracted 10 g → 100 mls 2N KCl. The formulas used for calculation
where C = net NO3N produced in control (no inhibitor), S = net
NO3N produced in inhibitor treated sample, net NO3N =
(NO3N) - (soil NO3N), and net NO2N = (NO2N) - (soil
NO2N). Values are averages of two replicate samples.

[3] = test system: soil urease (urease-active Hastings silt loam soil); test: Banded soil system urease inhibition test (Hastings silt loam); conditions: 410 mg urea + 41 mg inhibitor
Description: as §1
Soil System Test Procedure: The soil system test procedure used was a modification of the previous procedures of other researchers L. A. Douglas and J. M. Bremner, Soil Biol. Biochem. 3, 309-315 (1971) and J. M. Bremner and R. L. Mulvaney, "Urease Activity in Soils," Soil Enzymes 5, R. G. Burns, editor, Academic Press, 149-195 (1978)]. In this modified procedure powdered mixtures of urea and test compounds were applied in narrow bands in the soil rather than being mixed throughout the soil. The banded configuration also results in concentration gradients of urea, urea hydrolysis products, test compounds, and test compound decomposition products similar to those in the immediate vicinity of urea granules containing the test compounds. Another advantage of the banded configuration compared with mixing throughout the soil is that slightly soluble test compounds can be easily band applied, whereas it is difficult to achieve a known degree of mixing of a small quantity of slightly soluble test compound with soil. The banded configuration also enables testing for urease inhibition under realistic soil conditions prior to the development of techniques for cogranulating a wide range of test compounds with urea.
A detailed description of the banded soil testing procedure follows. Urease-active soil (Hastings silt loam) was moistened to a moisture content of 20 percent dry weight basis) and preincubated at room temperature for two days. Plexiglas containers (6×6×6 cm) were half filled with soil and packed to a bulk density of 1.0 g/cm . Urea (410 mg) or urea (410 mg) plus inhibitor (41 mg, thoroughly mixed with the urea) was distributed in a narrow band about 0.5 cm wide and 6 cm long on the soil surface. The containers then were filled with soil, again packing to a bulk density of 1.0 g/cm^3. The containers were incubated at 25° C. for the desired reaction period, after which the containers were frozen to about -5° C. to stop urea hydrolysis. Immediately prior to extracting the remaining urea from the soil, said soil was allowed to thaw. Soil from each container was thoroughly mixed, and a 10-g sample was extracted with 100 ml of 2 M KCl containing phenylmercuric acetate to prevent urea hydrolysis during handling [L. A. Douglas and J. M. Bremner, Soil. Sci. Soc. Am. Proc. 34, 859-862 (1970)]. Urea in the extracts was determined colorimetrically as a measure of unhydrolyzed urea and the results expressed as percent unhydrolyzed urea-N.
^a The plexiglas containers measured 6 × 6 × 6 cm.
Hastings silt loam soil was utilized and packed to a bulk density of 1
gm/cm^3 dry basis. The soil was wet to near field capacity (20%
moisture) and 260 g of wetted soil (216 g dry soil) was added per
container. The containers were packed half full, urea and inhibitor were
added, and the remaining soil was added. The amount of urea added = 410 m

purified Jack Bean urease, sequence (P07374 whole entry, looked up): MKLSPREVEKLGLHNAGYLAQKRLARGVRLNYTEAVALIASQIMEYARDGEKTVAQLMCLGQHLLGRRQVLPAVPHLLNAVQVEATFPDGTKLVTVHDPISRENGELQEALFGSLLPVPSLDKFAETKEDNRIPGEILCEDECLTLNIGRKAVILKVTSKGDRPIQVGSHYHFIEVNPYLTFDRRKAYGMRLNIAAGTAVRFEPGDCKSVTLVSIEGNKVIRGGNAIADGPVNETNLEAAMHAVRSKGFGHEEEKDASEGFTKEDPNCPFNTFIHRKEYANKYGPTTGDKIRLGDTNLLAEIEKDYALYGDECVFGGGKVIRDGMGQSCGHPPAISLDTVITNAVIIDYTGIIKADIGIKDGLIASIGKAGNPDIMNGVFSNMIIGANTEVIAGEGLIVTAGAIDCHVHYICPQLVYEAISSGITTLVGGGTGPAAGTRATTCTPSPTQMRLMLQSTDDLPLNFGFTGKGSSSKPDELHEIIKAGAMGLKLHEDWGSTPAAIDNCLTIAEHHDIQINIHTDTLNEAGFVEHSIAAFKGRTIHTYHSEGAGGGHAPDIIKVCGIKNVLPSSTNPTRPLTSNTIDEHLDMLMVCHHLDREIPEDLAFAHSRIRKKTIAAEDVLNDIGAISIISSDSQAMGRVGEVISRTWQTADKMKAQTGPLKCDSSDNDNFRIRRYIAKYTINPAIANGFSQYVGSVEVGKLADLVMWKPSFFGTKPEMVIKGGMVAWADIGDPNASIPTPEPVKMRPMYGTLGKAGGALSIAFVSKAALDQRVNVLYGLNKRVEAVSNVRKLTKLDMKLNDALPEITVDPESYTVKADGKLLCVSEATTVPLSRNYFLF

CC1(C)N(Cl)C(=O)N(Cl)C1(C)C [A, 1,3-dichloro-4,4,5,5-tetramethyl-2-imidazolidinone]
% urease inhibition ([1]; inhibitor 1.440 x 10^-8 moles/experiment): 86% | % urease inhibition ([1]; inhibitor 2.160 x 10^-8 moles/experiment): 95% | % urease inhibition ([1]; inhibitor 4.320 x 10^-8 moles/experiment): 100% | percent nitrification inhibition [2]: 41.8%

NP(N)(=O)Oc1ccccc1 [PPDA, Phenyl phosphorodiamidate, reference compound]
% unhydrolyzed urea-N ([3]; 3 days incubation at 25° C): 94.31% and 94.3% | PPM urea-N ([3]; 3 days incubation at 25° C): 83.5 PPM | % unhydrolyzed urea-N ([3]; 6 days incubation at 25° C): 58.73% and 58.7% | PPM urea-N ([3]; 6 days incubation at 25° C): 52 PPM | % urease inhibition ([1]; inhibitor 0.108 x 10^-8 moles/experiment): 99% | % urease inhibition ([1]; inhibitor 0.216 x 10^-8 moles/experiment): 100%

CC1(C)N(Cl)C(=O)N(Br)C1(C)C [ABC, 1-bromo-3-chloro-4,4,5,5-tetramethyl-2-imidazolidinone]
% unhydrolyzed urea-N ([3]; 3 days incubation at 25° C): 84.71% and 84.7% | PPM urea-N ([3]; 3 days incubation at 25° C): 75.0 PPM | % unhydrolyzed urea-N ([3]; 6 days incubation at 25° C): 53.65% and 53.7% | PPM urea-N ([3]; 6 days incubation at 25° C): 47.5 PPM | % urease inhibition ([1]; inhibitor 0.432 x 10^-8 moles/experiment): 93% | % urease inhibition ([1]; inhibitor 1.430 x 10^-8 moles/experiment): 100% | % inhibition (nitrification) ([2]; 1 week): 100.0% | Net mg NO2N ([2]; 1 week): -0.05 mg/container | Net mg NO3N ([2]; 1 week): 0.0 mg/container | % inhibition (nitrification) ([2]; 2 weeks): 100.0% | Net mg NO2N ([2]; 2 weeks): 0.04 mg/container | Net mg NO3N ([2]; 2 weeks): 0.0 mg/container | % inhibition (nitrification) ([2]; 3 weeks): 100.0% | Net mg NO2N ([2]; 3 weeks): 0.08 mg/container | Net mg NO3N ([2]; 3 weeks): 0.0 mg/container | % inhibition (nitrification) ([2]; 4 weeks): 100.0% | Net mg NO2N ([2]; 4 weeks): 1.68 mg/container | Net mg NO3N ([2]; 4 weeks): 0.0 mg/container | % inhibition (nitrification) ([2]; 5 weeks): 99.6% | Net mg NO2N ([2]; 5 weeks): 1.67 mg/container | Net mg NO3N ([2]; 5 weeks): 0.8 mg/container | Nitrite accumulation in the soil ([2]; during the 5 weeks incubation, greater than with dicyandiamide): well within plant tolerance levels | percent nitrification inhibition [2]: 85.6%
